Data reported in paper doi:10.1101/2025.05.23.655777v1 (biorxiv, 2025).

Target: GABA-AT; GABA aminotransferase 1 (recombinant) (Arabidopsis thaliana, UniProt Q94CE5)
Experiment: inhibition kinetics, LDH-coupled or HPLC assay, competitive fit
Assay type: biochemical

- Ki: 420 µM
SMILES: N[C@@H](CS)C(=O)O [L-cysteine]
